ChEMBL document CHEMBL1201862, “PubChem BioAssay data set” (2004)
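Step 1: Grow cells in 96-well plates. Step 2: Expose to compound for 48 hours at 5 concentrations. Step 3: Interpolate endpoints linearly; if unreached, use highest concentration. The concentration for 50% growth inhibition is given as GI50.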 Calls of active or inactive are those of the source. Rule as the data show it: active = GI50 up to about 1.1 µM and inactive = higher.

Assays:
Assay in all cases: NCI tumour cell line growth inhibition, 48 h
SF-295 = tested on: SF-295
SN12C = tested on: SN12C
SF-268 = tested on: SF-268
DU-145 = tested on: DU-145
UACC-257 = tested on: UACC-257
K562 = tested on: K562
NCI-H522 = tested on: NCI-H522
TK-10 = tested on: TK-10
SR = tested on: SR
IGROV-1 = tested on: IGROV-1
CAKI-1 = tested on: CAKI-1
SK-MEL-5 = tested on: SK-MEL-5
U-251 = tested on: U-251
A498 = tested on: A498
UO-31 = tested on: UO-31
T47D = tested on: T47D
EKVX = tested on: EKVX
MCF7 = tested on: MCF7
HT-29 = tested on: HT-29
NCI-H226 = tested on: NCI-H226
OVCAR-3 = tested on: OVCAR-3
MOLT-4 = tested on: MOLT-4
SK-OV-3 = tested on: SK-OV-3
PC-3 = tested on: PC-3
MDA-MB-435 = tested on: MDA-MB-435
MDA-N = tested on: MDA-N
HCT-116 = tested on: HCT-116
SNB-19 = tested on: SNB-19
786-0 = tested on: 786-0
RXF 393 = tested on: RXF 393
ACHN = tested on: ACHN
HCC 2998 = tested on: HCC 2998
UACC-62 = tested on: UACC-62
M14 = tested on: M14
SF-539 = tested on: SF-539
HCT-15 = tested on: HCT-15
Malme-3M = tested on: Malme-3M
SK-MEL-2 = tested on: SK-MEL-2
KM12 = tested on: KM12
OVCAR-5 = tested on: OVCAR-5
BT-549 = tested on: BT-549
SNB-75 = tested on: SNB-75
MDA-MB-231 = tested on: MDA-MB-231
NCI/ADR-RES = tested on: NCI/ADR-RES
OVCAR-4 = tested on: OVCAR-4
A549 = tested on: A549
HOP-62 = tested on: HOP-62
OVCAR-8 = tested on: OVCAR-8
NCI-H23 = tested on: NCI-H23
NCI-H460 = tested on: NCI-H460
CCRF-CEM = tested on: CCRF-CEM
COLO 205 = tested on: COLO 205
Hs-578T = tested on: Hs-578T
RPMI-8226 = tested on: RPMI-8226
LOX IMVI = tested on: LOX IMVI
HOP-92 = tested on: HOP-92
SW-620 = tested on: SW-620
HL-60 = tested on: HL-60
SK-MEL-28 = tested on: SK-MEL-28

O=[N+]([O-])c1ccc2nc(O)c(/C=C(\O)c3ccccc3)nc2c1
GI50 (SF-295): 18.8 µM (inactive)
GI50 (SN12C): 12.2 µM (inactive)
GI50 (SF-268): 13.9 µM (inactive)
GI50 (DU-145): > 100 µM (inactive)
GI50 (UACC-257): > 100 µM (inactive)
GI50 (K562): > 100 µM (inactive)
GI50 (NCI-H522): 12.5 µM (inactive)
GI50 (TK-10): 4.13 µM (inactive)
GI50 (SR): 17.9 µM (inactive)
GI50 (IGROV-1): 20.6 µM (inactive)
GI50 (CAKI-1): 21.4 µM (inactive)
GI50 (SK-MEL-5): 98.2 µM (inactive)
GI50 (U-251): 5.42 µM (inactive)
GI50 (A498): 12.5 µM (inactive)
GI50 (UO-31): 48.9 µM (inactive)
GI50 (T47D): 61.7 µM (inactive)
GI50 (EKVX): 49.4 µM (inactive)
GI50 (MCF7): 13.4 µM (inactive)
GI50 (HT-29): > 100 µM (inactive)
GI50 (NCI-H226): 17.6 µM (inactive)
GI50 (OVCAR-3): 27.9 µM (inactive)
GI50 (MOLT-4): > 100 µM (inactive)
GI50 (SK-OV-3): 12.3 µM (inactive)
GI50 (PC-3): 28.8 µM (inactive)
GI50 (MDA-MB-435): 35.2 µM (inactive)
GI50 (MDA-N): 93.5 µM (inactive)
GI50 (HCT-116): 13.7 µM (inactive)
GI50 (SNB-19): 8.09 µM (inactive)
GI50 (786-0): 4.78 µM (inactive)
GI50 (RXF 393): 20.6 µM (inactive)
GI50 (ACHN): 26.4 µM (inactive)
GI50 (HCC 2998): > 100 µM (inactive)
GI50 (UACC-62): 24.4 µM (inactive)
GI50 (M14): > 100 µM (inactive)
GI50 (SF-539): 15.3 µM (inactive)
GI50 (HCT-15): 11.5 µM
GI50 (Malme-3M): 55.8 µM (inactive)
GI50 (SK-MEL-2): > 100 µM (inactive)
GI50 (KM12): 4.81 µM (inactive)
GI50 (OVCAR-5): > 100 µM (inactive)
GI50 (BT-549): 76.7 µM (inactive)
GI50 (SNB-75): 16 µM (inactive)
GI50 (MDA-MB-231): 3.57 µM (inactive)
GI50 (NCI/ADR-RES): 10 µM (inactive)
GI50 (OVCAR-4): 2.86 µM (inactive)
GI50 (A549): 7.64 µM (inactive)
GI50 (HOP-62): 5.52 µM (inactive)
GI50 (OVCAR-8): 11.5 µM (inactive)
GI50 (NCI-H23): 17.2 µM (inactive)
GI50 (NCI-H460): 3.83 µM (inactive)
GI50 (CCRF-CEM): > 100 µM (inactive)
GI50 (COLO 205): > 100 µM (inactive)
GI50 (Hs-578T): 2.23 µM (inactive)

CC1C/C(=N\N(C)C)C(C#N)(C#N)C1(C#N)C#N (stereo not drawn)
GI50 (SF-295): 20.8 µM (inactive)
GI50 (SN12C): 19 µM (inactive)
GI50 (SF-268): 15.6 µM (inactive)
GI50 (DU-145): 18.2 µM (inactive)
GI50 (UACC-257): 13.2 µM (inactive)
GI50 (K562): 2.35 µM (inactive)
GI50 (NCI-H522): 1.93 µM (inactive)
GI50 (TK-10): 13.6 µM (inactive)
GI50 (RPMI-8226): 3.92 µM (inactive)
GI50 (LOX IMVI): 7.14 µM (inactive)
GI50 (SR): 2.82 µM (inactive)
GI50 (IGROV-1): 20.6 µM (inactive)
GI50 (HOP-92): 4.63 µM (inactive)
GI50 (CAKI-1): 1.75 µM (inactive)
GI50 (SK-MEL-5): 18.7 µM (inactive)
GI50 (U-251): 18.7 µM (inactive)
GI50 (UO-31): 15.6 µM (inactive)
GI50 (T47D): 10.8 µM (inactive)
GI50 (EKVX): 22 µM (inactive)
GI50 (MCF7): 16 µM (inactive)
GI50 (HT-29): 6.53 µM (inactive)
GI50 (NCI-H226): 30.2 µM (inactive)
GI50 (OVCAR-3): 13.2 µM (inactive)
GI50 (MOLT-4): 2.63 µM (inactive)
GI50 (SK-OV-3): > 46.9 µM (inactive)
GI50 (PC-3): 20.8 µM (inactive)
GI50 (MDA-MB-435): 16.7 µM (inactive)
GI50 (MDA-N): 17.8 µM (inactive)
GI50 (HCT-116): 9.48 µM (inactive)
GI50 (SNB-19): 31.7 µM (inactive)
GI50 (786-0): 3.7 µM (inactive)
GI50 (RXF 393): 9.89 µM (inactive)
GI50 (SW-620): 5.05 µM (inactive)
GI50 (ACHN): 8.43 µM (inactive)
GI50 (HCC 2998): 17 µM (inactive)
GI50 (UACC-62): 13.8 µM (inactive)
GI50 (M14): 12.2 µM (inactive)
GI50 (SF-539): 18.1 µM (inactive)
GI50 (HCT-15): 4.81 µM
GI50 (Malme-3M): 7.6 µM (inactive)
GI50 (SK-MEL-2): 22.2 µM (inactive)
GI50 (KM12): 27 µM (inactive)
GI50 (OVCAR-5): 21.6 µM (inactive)
GI50 (BT-549): 4.57 µM (inactive)
GI50 (SNB-75): 9.64 µM (inactive)
GI50 (HL-60): 0.857 µM (active)
GI50 (MDA-MB-231): 0.583 µM (active)
GI50 (NCI/ADR-RES): 25.8 µM (inactive)
GI50 (OVCAR-4): 12.6 µM (inactive)
GI50 (A549): 24.8 µM (inactive)
GI50 (HOP-62): 18 µM (inactive)
GI50 (OVCAR-8): 19.2 µM (inactive)
GI50 (NCI-H23): 20.5 µM (inactive)
GI50 (CCRF-CEM): 0.91 µM (active)
GI50 (SK-MEL-28): 16 µM (inactive)
GI50 (COLO 205): 1.82 µM (inactive)
GI50 (Hs-578T): 35.6 µM (inactive)

O=C1/C(=C/c2ccc(Br)s2)NC(=S)N1CN1CCOCC1
GI50 (SF-295): 95.5 µM (inactive)
GI50 (SN12C): 45.4 µM (inactive)
GI50 (SF-268): 87.7 µM (inactive)
GI50 (DU-145): 53.2 µM (inactive)
GI50 (UACC-257): 66.8 µM (inactive)
GI50 (K562): 25.8 µM (inactive)
GI50 (NCI-H522): 64 µM (inactive)
GI50 (TK-10): 50.6 µM (inactive)
GI50 (RPMI-8226): 16.7 µM (inactive)
GI50 (LOX IMVI): 24.5 µM (inactive)
GI50 (SR): 21.5 µM (inactive)
GI50 (IGROV-1): 57.4 µM (inactive)
GI50 (CAKI-1): 25.2 µM (inactive)
GI50 (SK-MEL-5): 50 µM (inactive)
GI50 (U-251): 43 µM (inactive)
GI50 (A498): 35.9 µM (inactive)
GI50 (UO-31): 37.5 µM (inactive)
GI50 (T47D): 49.5 µM (inactive)
GI50 (EKVX): 8.38 µM (inactive)
GI50 (MCF7): 25.1 µM (inactive)
GI50 (HT-29): 35.2 µM (inactive)
GI50 (NCI-H226): 34.5 µM (inactive)
GI50 (OVCAR-3): 59.3 µM (inactive)
GI50 (MOLT-4): 32.7 µM (inactive)
GI50 (PC-3): 78.9 µM (inactive)
GI50 (MDA-MB-435): 56.9 µM (inactive)
GI50 (MDA-N): 52 µM (inactive)
GI50 (HCT-116): 31.8 µM (inactive)
GI50 (SNB-19): > 100 µM (inactive)
GI50 (786-0): 43 µM (inactive)
GI50 (RXF 393): 21.3 µM (inactive)
GI50 (SW-620): 36.4 µM (inactive)
GI50 (ACHN): 48 µM (inactive)
GI50 (HCC 2998): > 100 µM (inactive)
GI50 (UACC-62): 20.2 µM (inactive)
GI50 (HCT-15): 30.2 µM
GI50 (Malme-3M): > 100 µM (inactive)
GI50 (SK-MEL-2): 71.9 µM (inactive)
GI50 (KM12): 84.3 µM (inactive)
GI50 (OVCAR-5): 61.1 µM (inactive)
GI50 (BT-549): 34 µM (inactive)
GI50 (SNB-75): 85.5 µM (inactive)
GI50 (HL-60): 23.9 µM (inactive)
GI50 (MDA-MB-231): 99.8 µM (inactive)
GI50 (NCI/ADR-RES): 64.9 µM (inactive)
GI50 (OVCAR-4): 61.9 µM (inactive)
GI50 (HOP-62): > 100 µM (inactive)
GI50 (OVCAR-8): 61.5 µM (inactive)
GI50 (NCI-H23): 36.3 µM (inactive)
GI50 (NCI-H460): 49.8 µM (inactive)
GI50 (SK-MEL-28): 40.4 µM (inactive)
GI50 (COLO 205): 33 µM (inactive)
GI50 (Hs-578T): 65.3 µM (inactive)
